Measurements reported in patent US6498125B2, “Pyridine ketones useful as herbicides” (Syngenta Participations AG, priority 1998, dated 2002).

Tested on: Monocotyledonous and dicotyledonous test plants
Test: Example B2: post-emergence herbicidal action, 2 kg of AS/ha
Format: in vivo
Design: key: 1 = complete damage, 9 = no effect
Conditions: test plant Avena, 4- to 6-leaf stage, about 18 days, scale 1-9
Description: Monocotyledonous and dicotyledonous test plants are grown in plastic pots with standard soil in a greenhouse and, in the 4- to 6-leaf stage, are sprayed with an aqueous suspension of the test substances of the formula 1, prepared from a 25% wettable powder (Example F3, b) according to WO 97134485) or with an emulsion of the test substances of the formula I, prepared from a 25% emulsion concentrate (Example F1, c) according to WO 97/34485), corresponding to a dosage of 2 kg of AS/ha (500 l of water/ha). The test plants are then grown further under optimum conditions in a greenhouse. After a test period of about 18 days, the test is evaluated with a nine-level scale of rating (1=complete damage, 9=no effect). Ratings of 1 to 4 (in particular 1 to 3) mean good to very good herbicidal action. In this test, the compounds of the formula I show strong herbicidal action.

| SMILES | post-emergence action rating, Avena |
| --- | --- |
| Cc1nc(C(F)(F)C(F)(F)C(F)(F)C(F)(F)F)ccc1C(=O)C1=C(O)C2CCC(C2)C1=O (centres unmarked) [Compound 1.411] | 2 |
| Cc1nc(C(F)(F)F)ccc1C(=O)C1=C(O)C(C)(C)ON(C)C1=O [Compound 4.009] | 1 |
| COCc1nc(C(F)(F)F)ccc1C(=O)C1=C(O)C(C)(C)ON(C)C1=O [Compound 4.021] | 2 |
| Cc1nc(C(F)(F)Cl)ccc1C(=O)C1=C(O)C(C)(C)ON(C)C1=O [Compound 4.124] | 2 |

Same assay, conditions: test plant Setaria, 4- to 6-leaf stage, about 18 days, scale 1-9

| SMILES | post-emergence action rating, Setaria |
| --- | --- |
| Cc1nc(C(F)(F)C(F)(F)C(F)(F)C(F)(F)F)ccc1C(=O)C1=C(O)C2CCC(C2)C1=O (centres unmarked) [Compound 1.411] | 2 |
| Cc1nc(C(F)(F)F)ccc1C(=O)C1=C(O)C(C)(C)ON(C)C1=O [Compound 4.009] | 1 |
| COCc1nc(C(F)(F)F)ccc1C(=O)C1=C(O)C(C)(C)ON(C)C1=O [Compound 4.021] | 2 |
| Cc1nc(C(F)(F)Cl)ccc1C(=O)C1=C(O)C(C)(C)ON(C)C1=O [Compound 4.124] | 2 |

Same assay, conditions: test plant Sinapis, 4- to 6-leaf stage, about 18 days, scale 1-9

| SMILES | post-emergence action rating, Sinapis |
| --- | --- |
| Cc1nc(C(F)(F)C(F)(F)C(F)(F)C(F)(F)F)ccc1C(=O)C1=C(O)C2CCC(C2)C1=O (centres unmarked) [Compound 1.411] | 1 |
| Cc1nc(C(F)(F)F)ccc1C(=O)C1=C(O)C(C)(C)ON(C)C1=O [Compound 4.009] | 1 |
| COCc1nc(C(F)(F)F)ccc1C(=O)C1=C(O)C(C)(C)ON(C)C1=O [Compound 4.021] | 1 |
| Cc1nc(C(F)(F)Cl)ccc1C(=O)C1=C(O)C(C)(C)ON(C)C1=O [Compound 4.124] | 1 |

Same assay, conditions: test plant Solanum, 4- to 6-leaf stage, about 18 days, scale 1-9

| SMILES | post-emergence action rating, Solanum |
| --- | --- |
| Cc1nc(C(F)(F)C(F)(F)C(F)(F)C(F)(F)F)ccc1C(=O)C1=C(O)C2CCC(C2)C1=O (centres unmarked) [Compound 1.411] | 2 |
| Cc1nc(C(F)(F)F)ccc1C(=O)C1=C(O)C(C)(C)ON(C)C1=O [Compound 4.009] | 1 |
| COCc1nc(C(F)(F)F)ccc1C(=O)C1=C(O)C(C)(C)ON(C)C1=O [Compound 4.021] | 1 |
| Cc1nc(C(F)(F)Cl)ccc1C(=O)C1=C(O)C(C)(C)ON(C)C1=O [Compound 4.124] | 1 |

Same assay, conditions: test plant Stellaria, 4- to 6-leaf stage, about 18 days, scale 1-9

| SMILES | post-emergence action rating, Stellaria |
| --- | --- |
| Cc1nc(C(F)(F)C(F)(F)C(F)(F)C(F)(F)F)ccc1C(=O)C1=C(O)C2CCC(C2)C1=O (centres unmarked) [Compound 1.411] | 2 |
| Cc1nc(C(F)(F)F)ccc1C(=O)C1=C(O)C(C)(C)ON(C)C1=O [Compound 4.009] | 1 |
| COCc1nc(C(F)(F)F)ccc1C(=O)C1=C(O)C(C)(C)ON(C)C1=O [Compound 4.021] | 2 |
| Cc1nc(C(F)(F)Cl)ccc1C(=O)C1=C(O)C(C)(C)ON(C)C1=O [Compound 4.124] | 2 |

Tested on: Monocotyledonous and dicotyledonous test plants
Test: Example B1: pre-emergence herbicidal action, 2 kg of AS/ha
Format: in vivo
Conditions: test plant Avena, 3 weeks, scale 1-9
Description: Monocotyledonous and dicotyledonous test plants are sown in standard soil in plastic pots. Immediately after sowing, the test substances are sprayed on (500 l of water/ha) as an aqueous suspension (prepared from a 25% wettable powder (Example F3, b) according to WO 97/34485) or emulsion (prepared from a 25% emulsion concentrate (Example F1, c)), corresponding to a dosage of 2 kg of AS/ha. The test plants are then grown under optimum conditions in a greenhouse. After a test period of 3 weeks, the test is evaluated with a nine-level scale of ratings (1=complete damage, 9=no effect). Ratings of 1 to 4 (in particular 1 to 3) mean good to very good herbicidal action.

| SMILES | pre-emergence action rating, Avena |
| --- | --- |
| Cc1nc(C(F)(F)C(F)(F)C(F)(F)C(F)(F)F)ccc1C(=O)C1=C(O)C2CCC(C2)C1=O (centres unmarked) [Compound 1.411] | 3 |
| Cc1nc(C(F)(F)F)ccc1C(=O)C1=C(O)C(C)(C)ON(C)C1=O [Compound 4.009] | 1 |
| COCc1nc(C(F)(F)F)ccc1C(=O)C1=C(O)C(C)(C)ON(C)C1=O [Compound 4.021] | 2 |
| Cc1nc(C(F)(F)Cl)ccc1C(=O)C1=C(O)C(C)(C)ON(C)C1=O [Compound 4.124] | 2 |

Same assay, conditions: test plant Cyperus, 3 weeks, scale 1-9

| SMILES | pre-emergence action rating, Cyperus |
| --- | --- |
| Cc1nc(C(F)(F)C(F)(F)C(F)(F)C(F)(F)F)ccc1C(=O)C1=C(O)C2CCC(C2)C1=O (centres unmarked) [Compound 1.411] | 2 |
| Cc1nc(C(F)(F)F)ccc1C(=O)C1=C(O)C(C)(C)ON(C)C1=O [Compound 4.009] | 2 |
| COCc1nc(C(F)(F)F)ccc1C(=O)C1=C(O)C(C)(C)ON(C)C1=O [Compound 4.021] | 1 |
| Cc1nc(C(F)(F)Cl)ccc1C(=O)C1=C(O)C(C)(C)ON(C)C1=O [Compound 4.124] | 1 |

Same assay, conditions: test plant Setaria, 3 weeks, scale 1-9

| SMILES | pre-emergence action rating, Setaria |
| --- | --- |
| Cc1nc(C(F)(F)C(F)(F)C(F)(F)C(F)(F)F)ccc1C(=O)C1=C(O)C2CCC(C2)C1=O (centres unmarked) [Compound 1.411] | 1 |
| Cc1nc(C(F)(F)F)ccc1C(=O)C1=C(O)C(C)(C)ON(C)C1=O [Compound 4.009] | 1 |
| COCc1nc(C(F)(F)F)ccc1C(=O)C1=C(O)C(C)(C)ON(C)C1=O [Compound 4.021] | 2 |
| Cc1nc(C(F)(F)Cl)ccc1C(=O)C1=C(O)C(C)(C)ON(C)C1=O [Compound 4.124] | 2 |

Same assay, conditions: test plant Sinapis, 3 weeks, scale 1-9

| SMILES | pre-emergence action rating, Sinapis |
| --- | --- |
| Cc1nc(C(F)(F)C(F)(F)C(F)(F)C(F)(F)F)ccc1C(=O)C1=C(O)C2CCC(C2)C1=O (centres unmarked) [Compound 1.411] | 2 |
| Cc1nc(C(F)(F)F)ccc1C(=O)C1=C(O)C(C)(C)ON(C)C1=O [Compound 4.009] | 2 |
| COCc1nc(C(F)(F)F)ccc1C(=O)C1=C(O)C(C)(C)ON(C)C1=O [Compound 4.021] | 2 |
| Cc1nc(C(F)(F)Cl)ccc1C(=O)C1=C(O)C(C)(C)ON(C)C1=O [Compound 4.124] | 2 |

Same assay, conditions: test plant Solanum, 3 weeks, scale 1-9

| SMILES | pre-emergence action rating, Solanum |
| --- | --- |
| Cc1nc(C(F)(F)C(F)(F)C(F)(F)C(F)(F)F)ccc1C(=O)C1=C(O)C2CCC(C2)C1=O (centres unmarked) [Compound 1.411] | 1 |
| Cc1nc(C(F)(F)F)ccc1C(=O)C1=C(O)C(C)(C)ON(C)C1=O [Compound 4.009] | 1 |
| COCc1nc(C(F)(F)F)ccc1C(=O)C1=C(O)C(C)(C)ON(C)C1=O [Compound 4.021] | 1 |
| Cc1nc(C(F)(F)Cl)ccc1C(=O)C1=C(O)C(C)(C)ON(C)C1=O [Compound 4.124] | 1 |

Same assay, conditions: test plant Stellaria, 3 weeks, scale 1-9

| SMILES | pre-emergence action rating, Stellaria |
| --- | --- |
| Cc1nc(C(F)(F)C(F)(F)C(F)(F)C(F)(F)F)ccc1C(=O)C1=C(O)C2CCC(C2)C1=O (centres unmarked) [Compound 1.411] | 2 |
| Cc1nc(C(F)(F)F)ccc1C(=O)C1=C(O)C(C)(C)ON(C)C1=O [Compound 4.009] | 3 |
| COCc1nc(C(F)(F)F)ccc1C(=O)C1=C(O)C(C)(C)ON(C)C1=O [Compound 4.021] | 2 |
| Cc1nc(C(F)(F)Cl)ccc1C(=O)C1=C(O)C(C)(C)ON(C)C1=O [Compound 4.124] | 2 |
